Biological target: human APJ receptor (Homo sapiens (Human), UniProt P35414)
Assay: biochemical
Assay type: biochemical
Settings: read-out: Activity hAPJ SPA EC50 IP
How it was run: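 Membranes from CHO cells stably expressing cloned human APJ were incubated with WGA SPA beads in 20 mM HEPES pH 7.5, 5 mM MgCl2, 0.1% BSA, 200 mM NaCl and 3 μM GDP. Reaction started with 0.2 nM [35S]GTPγS ± ligands, 90 min at RT. EC50 obtained by non-linear regression as mean of independent experiments.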

Chain of human APJ receptor (P35414 whole entry): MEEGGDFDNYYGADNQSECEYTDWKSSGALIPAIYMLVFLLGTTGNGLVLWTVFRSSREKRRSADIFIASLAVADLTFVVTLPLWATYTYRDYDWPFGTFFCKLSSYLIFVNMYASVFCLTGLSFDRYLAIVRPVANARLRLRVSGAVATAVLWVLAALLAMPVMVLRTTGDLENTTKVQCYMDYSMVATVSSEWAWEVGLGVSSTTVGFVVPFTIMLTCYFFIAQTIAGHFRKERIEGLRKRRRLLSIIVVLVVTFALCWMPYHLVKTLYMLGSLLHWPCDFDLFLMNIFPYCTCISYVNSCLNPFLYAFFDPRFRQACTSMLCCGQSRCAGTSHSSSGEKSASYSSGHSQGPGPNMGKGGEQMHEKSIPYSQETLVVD

Q: `CCOc1cccc(-c2nnc(NS(=O)(=O)[C@@H](C)[C@H](OC)c3ncc(C)cn3)n2-c2c(OC)cccc2OC)n1` [Example 172.0, (1R,2S)-N-(4-(2,6-dimethoxyphenyl)-5-(6-ethoxypyridin-2-yl)-4H-1,2,4-triazol-3-yl)-1-methoxy-1-(5-methylpyrimidin-2-yl)propane-2-sulfonamide] was tested. Which EC50 did it give?
A: Its EC50 is 0.065 nM.

Q: `COc1cccc(-c2nnc(NS(=O)(=O)[C@@H](C)[C@H](OC)c3ncc(C)cn3)n2-c2cccc(C(F)(F)F)c2)n1` [Example 75.0, (1R,2S)-1-methoxy-N-(5-(6-methoxy-2-pyridinyl)-4-(3-(trifluoromethyl)phenyl)-4H-1,2,4-triazol-3-yl)-1-(5-methyl-2-pyrimidinyl)-2-propanesulfonamide] was tested. Which EC50 did it give?
A: The EC50 was 12 nM.

Q: With `COc1cccc(OC)c1-n1c(NS(=O)(=O)[C@@H](C)[C@@H](OC(C)C)c2ncc(C)cn2)nnc1-c1cccc(C)n1` [Example 738.0, (1S,2S)-N-(4-(2,6-dimethoxyphenyl)-5-(6-methylpyridin-2-yl)-4H-1,2,4-triazol-3-yl)-1-isopropoxy-1-(5-methylpyrimidin-2-yl)propane-2-sulfonamide] as the molecule, how does the EC50 read?
A: Its EC50 is 0.1 nM.

Q: How did the EC50 turn out when `COc1cnc([C@@H](OC)[C@H](C)S(=O)(=O)Nc2nnc(-c3cncc(C)c3)n2-c2ccccc2)nc1` [Example 59.0, (1R,2S)-1-methoxy-1-(5-methoxy-2-pyrimidinyl)-N-(5-(5-methyl-3-pyridinyl)-4-phenyl-4H-1,2,4-triazol-3-yl)-2-propanesulfonamide] was run?
A: Its EC50 is 26 nM.

Q: How did the EC50 turn out when `COc1cccc(OC)c1-n1c(NS(=O)(=O)[C@H](C)[C@@H](C)c2cnc(C)cn2)nnc1-c1cccnc1` (racemic) [Example 701.0, (2R,3S)-N-(4-(2,6-dimethoxyphenyl)-5-(3-pyridinyl)-4H-1,2,4-triazol-3-yl)-3-(5-methyl-2-pyrazinyl)-2-butanesulfonamide, (2S,3R)-N-(4-(2,6-dimethoxyphenyl)-5-(3-pyridinyl)-4H-1,2,4-triazol-3-yl)-3-(5-methyl-2-pyrazinyl)-2-butanesulfonamide] was run?
A: Its EC50 is 2 nM.

Q: For `COc1cccc(-c2nnc(NS(=O)(=O)[C@@H](C)[C@H](OC)c3ncc(C)cn3)n2-c2cccnc2OC)n1` (atropisomer, axis not shown) [Example 741.0, (1R,2S)-1-methoxy-N-(5-(6-methoxypyridin-2-yl)-4-(2-methoxypyridin-3-yl)-4H-1,2,4-triazol-3-yl)-1-(5-methylpyrimidin-2-yl)propane-2-sulfonamide], which EC50 is on record?
A: Its EC50 is 3.1 nM.

Q: `COc1cc(C)cc(-c2nnc(NS(=O)(=O)[C@@H](C)[C@H](C)c3ncc(C)cn3)n2-c2c(OC)cccc2OC)n1` [Example 178.0, (2S,3R)-N-(4-(2,6-dimethoxyphenyl)-5-(6-methoxy-4-methylpyridin-2-yl)-4H-1,2,4-triazol-3-yl)-3-(5-methylpyrimidin-2-yl)butane-2-sulfonamide] was tested. Which EC50 did it give?
A: The EC50 was 0.12 nM.

Q: `COc1cccc(-c2nnc(NS(=O)(=O)[C@@H](C)[C@H](OC)c3ncc(C)cn3)n2-c2cccc(Cl)c2C)n1` (atropisomer, axis not shown; (P)) [Example 55.0, (1R,2S,P)-N-(4-(3-chloro-2-methylphenyl)-5-(6-methoxy-2-pyridinyl)-4H-1,2,4-triazol-3-yl)-1-methoxy-1-(5-methyl-2-pyrimidinyl)-2-propanesulfonamide and (1R,2S,M)-N-(4-(3-chloro-2-methylphenyl)-5-(6-methoxy-2-pyridinyl)-4H-1,2,4-triazol-3-yl)-1-methoxy-1-(5-methyl-2-pyrimidinyl)-2-propanesulfonamide] was tested. Which EC50 did it give?
A: Its EC50 is 17 nM.

Q: How did the EC50 turn out when `COc1cccc(OC)c1-n1c(NS(=O)(=O)[C@@H](C)[C@H](C)c2ncc(F)cn2)nnc1-c1cccc(-c2ccccc2)n1` [Example 455.0, (2S,3R)—N-(4-(2,6-dimethoxyphenyl)-5-(6-phenyl-2-pyridinyl)-4H-1,2,4-triazol-3-yl)-3-(5-fluoro-2-pyrimidinyl)-2-butanesulfonamide] was run?
A: Its EC50 is 4.9 nM.

Q: Which EC50 does the source give for `COc1cccc(OC)c1-n1c(NS(=O)(=O)[C@@H](C)[C@H](OC)C2CC(C)(C)C2)nnc1-c1cncc(C)c1` (single isomer, unassigned) [Example 724.0] here?
A: The EC50 was 220 nM.

Q: With `COc1cccc(OC)c1-n1c(NS(=O)(=O)[C@@H](C)[C@H](C)c2ncc(F)cn2)nnc1-c1cccc(C)n1` [Example 453.0, (2S,3R)—N-(4-(2,6-dimethoxyphenyl)-5-(6-methyl-2-pyridinyl)-4H-1,2,4-triazol-3-yl)-3-(5-fluoro-2-pyrimidinyl)-2-butanesulfonamide] as the molecule, how does the EC50 read?
A: Its EC50 is 0.6 nM.

Q: Which EC50 does the source give for `CNc1cccc(-c2nnc(NS(=O)(=O)[C@@H](C)[C@H](C)c3ncc(C)cn3)n2-c2c(F)cccc2F)n1` [Example 791.0, (2S,3R)-N-(4-(2,6-difluorophenyl)-5-(6-(methylamino)-2-pyridinyl)-4H-1,2,4-triazol-3-yl)-3-(5-methyl-2-pyrimidinyl)-2-butanesulfonamide] here?
A: The EC50 was 0.63 nM.

Q: For `COc1ncnc(OC)c1-n1c(NS(=O)(=O)[C@@H](C)[C@@H](OC(C)C)c2ncc(C)cn2)nnc1-c1ccccn1` [Example 777.0, (1S,2S)-N-(4-(4,6-dimethoxy-5-pyrimidinyl)-5-(2-pyridinyl)-4H-1,2,4-triazol-3-yl)-1-(1-methylethoxy)-1-(5-methyl-2-pyrimidinyl)-2-propanesulfonamide], which EC50 is on record?
A: The EC50 was 2.2 nM.

Q: How did the EC50 turn out when `COc1cccc(-c2nnc(NS(=O)(=O)[C@H](C)[C@H](OC)c3ccc(C#N)cc3C#N)n2-c2c(OC)cccc2OC)n1` (single isomer, unassigned) [Example 476.0, (1R,2R)-1-(2,4-dicyanophenyl)-N-(4-(2,6-dimethoxyphenyl)-5-(6-methoxy-2-pyridinyl)-4H-1,2,4-triazol-3-yl)-1-methoxy-2-propanesulfonamide or (1S,2S)-1-(2,4-dicyanophenyl)-N-(4-(2,6-dimethoxyphenyl)-5-(6-methoxy-2-pyridinyl)-4H-1,2,4-triazol-3-yl)-1-methoxy-2-propanesulfonamide] was run?
A: The EC50 was 0.55 nM.

Q: For `COc1cccc(OC)c1-n1c(NS(=O)(=O)[C@H](C)[C@@H](OC)c2ncc(Cl)cn2)nnc1-c1cncc(C)c1` (single isomer, unassigned) [Example 559.0], which EC50 is on record?
A: The EC50 was 120 nM.

Q: For `COc1cccc(-c2nnc(NS(=O)(=O)[C@@H](C)[C@H](OC)c3ncc(C)cn3)n2-c2ccc(Cl)cc2)n1` [Example 45.0, (1R,2S)-N-(4-(4-chlorophenyl)-5-(6-methoxy-2-pyridinyl)-4H-1,2,4-triazol-3-yl)-1-methoxy-1-(5-methyl-2-pyrimidinyl)-2-propanesulfonamide], which EC50 is on record?
A: The EC50 was 96 nM.

Q: Which EC50 does the source give for `COc1cccc(OC)c1-n1c(NS(=O)(=O)[C@H](C)[C@@H](OC[C@H](C)O)c2ncc(C)cn2)nnc1-c1cncc(C)c1` (single isomer, unassigned) [Example 400.0] here?
A: Its EC50 is 17 nM.

Q: Which EC50 does the source give for `COc1cccc(-c2nnc(NS(=O)(=O)[C@@H](C)[C@H](C)c3ncc(F)cn3)n2-c2ccccc2)n1` [Example 78.0, (2S,3R)-3-(5-fluoro-2-pyrimidinyl)-N-(5-(6-methoxy-2-pyridinyl)-4-phenyl-4H-1,2,4-triazol-3-yl)-2-butanesulfonamide] here?
A: Its EC50 is 9.4 nM.

Q: How did the EC50 turn out when `COc1cccc(-c2nnc(NS(=O)(=O)CCc3ccc(F)cc3C#N)n2-c2c(OC)ncnc2OC)n1` [Example 204.0, 2-(2-cyano-4-fluorophenyl)-N-(4-(4,6-dimethoxy-5-pyrimidinyl)-5-(6-methoxy-2-pyridinyl)-4H-1,2,4-triazol-3-yl)ethanesulfonamide] was run?
A: The EC50 was 1.5 nM.

Q: How did the EC50 turn out when `COc1ccc(-n2c(NS(=O)(=O)[C@@H](C)[C@H](OC)c3ncc(C)cn3)nnc2-c2cccc(OC)n2)cc1` [Example 46.0, (1R,2S)-1-methoxy-N-(4-(4-methoxyphenyl)-5-(6-methoxy-2-pyridinyl)-4H-1,2,4-triazol-3-yl)-1-(5-methyl-2-pyrimidinyl)-2-propanesulfonamide] was run?
A: The EC50 was 75 nM.

Q: With `COc1cccc(-c2nnc(NS(=O)(=O)[C@H](C)Cc3ncc(F)cn3)n2-c2c(C)noc2C)n1` (mixture of isomers) [Example 32.0, (2R)-N-(4-(3,5-dimethylisoxazol-4-yl)-5-(6-methoxypyridin-2-yl)-4H-1,2,4-triazol-3-yl)-1-(5-fluoropyrimidin-2-yl)propane-2-sulfonamide and (2S)-N-(4-(3,5-dimethylisoxazol-4-yl)-5-(6-methoxypyridin-2-yl)-4H-1,2,4-triazol-3-yl)-1-(5-fluoropyrimidin-2-yl)propane-2-sulfonamide] as the molecule, how does the EC50 read?
A: The EC50 was 140 nM.

Q: How did the EC50 turn out when `COc1cccc(OC)c1-n1c(NS(=O)(=O)[C@H](C)[C@@H](O)c2cn3ccccc3n2)nnc1-c1cccnc1` (single isomer, unassigned) [Example 736.0, (1S,2R)—N-(4-(2,6-dimethoxyphenyl)-5-(pyridin-3-yl)-4H-1,2,4-triazol-3-yl)-1-hydroxy-1-(imidazo[1,2-a]pyridin-2-yl)propane-2-sulfonamide or (1R,2S)—N-(4-(2,6-dimethoxyphenyl)-5-(pyridin-3-yl)-4H-1,2,4-triazol-3-yl)-1-hydroxy-1-(imidazo[1,2-a]pyridin-2-yl)propane-2-sulfonamide] was run?
A: Its EC50 is 19 nM.

Q: `COc1cccc(-c2nnc(NS(=O)(=O)[C@@H](C)[C@H](OC)c3ncc(C)cn3)n2-c2ccccc2F)n1` (atropisomer, axis not shown; (P)) [Example 76.0, (1R,2S,P)-N-(4-(2-fluorophenyl)-5-(6-methoxy-2-pyridinyl)-4H-1,2,4-triazol-3-yl)-1-methoxy-1-(5-methyl-2-pyrimidinyl)-2-propanesulfonamide and (1R,2S,M)-N-(4-(2-fluorophenyl)-5-(6-methoxy-2-pyridinyl)-4H-1,2,4-triazol-3-yl)-1-methoxy-1-(5-methyl-2-pyrimidinyl)-2-propanesulfonamide] was tested. Which EC50 did it give?
A: Its EC50 is 3 nM.

Q: How did the EC50 turn out when `COc1cccc(-c2nnc(NS(=O)(=O)[C@@H](C)[C@H](C)c3cnc(C)cn3)n2C2CCOCC2)n1` [Example 843.0, (2S,3R)-N-(5-(6-methoxy-2-pyridinyl)-4-(tetrahydro-2H-pyran-4-yl)-4H-1,2,4-triazol-3-yl)-3-(5-methyl-2-pyrazinyl)-2-butanesulfonamide] was run?
A: Its EC50 is 970 nM.
